Data from US5326868A, “Certain aryl fused pyrrolopyrimidines; a new class of GABA brain receptor ligands” (Neurogen Corporation, priority 1993, dated 1994).

What was measured:
[1] = test system: GABA receptor; conditions: Tallman et al., 1978; cited from earlier work
[2] = target: GABAa receptor; test: GABAa receptor activity: displacement of 3H-RO15-1788 (3H-Flumazenil) binding in rat cortical tissue homogenate; conditions: 3H-RO15-1788 0.5 nM, 30 min at 4° C., pH 7.4, rat cortical tissue
Method: The pharmaceutical utility of compounds of this invention are indicated by the following assay for GABAa receptor activity.
Assays are carried out as described in Thomas and Tallman (J. Bio. Chem. 156: 9838-9842, J. Neurosci. 3: 433-440, 1983). Rat cortical tissue is dissected and homogenized in 25 volumes (w/v) of 0.05M Tris HCl buffer (pH 7.4 at 4° C.). The tissue homogenate is centrifuged in the cold (4°) at 20,000×g for 20'. The supernatant is decanted and the pellet is rehomogenized in the same volume of buffer and again centrifuged at 20,000×g. The supernatant is decanted and the pellet is frozen at -20° C. overnight. The pellet is then thawed and rehomogenized in 25 volume (original wt/vol) of buffer and the procedure is carried out twice. The pellet is finally resuspended in 50 volumes (w/vol of 0.05M Tris HCl buffer (pH 7.4 at […]).
Incubations contain […] of radioligand 0.5 nM (^3 H-RO15-1788 [^3 H-Flumazenil] specific activity 80 Ci/mmol), drug or blocker and buffer to a total volume of […]. Incubations are carried for 30 min at 4° C. then are rapidly filtered through GFB filters to separate free and bound ligand. Filters are washed twice with fresh 0.05M Tris HCl buffer (pH 7.4° at 4° C.) and counted in a liquid scintillation counter. […] diazepam is added to some tubes to determine nonspecific binding. Data are collected in triplicate determinations, averaged and % inhibition of total specific binding is calculated. Total Specific Binding=Total - Nonspecific. In some cases, the amounts of unlabeled drugs is varied and total displacement curves of binding are carried out. Data are converted to a form for the calculation of IC50 and Hill Coefficient (nH).

| IC50 [2] | SMILES | blocking of enhancement of benzodiazepine binding by GABA agonists [1] |
| --- | --- | --- |
|  | CN1CCc2cc3c(cc2[C@H]1[C@@H]1OC(=O)c2c1ccc1c2OCO1)OCO3 [(+) bicuculline] | blocked |
|  | CN1CCc2cc3c(cc2[C@@H]1[C@H]1OC(=O)c2c1ccc1c2OCO1)OCO3 [(-) bicuculline] | much less active |
| 2.5 nM | COc1ccc(-c2ncc3[nH]c4ccccc4c3n2)c(F)c1 [Compound 1, 2-(2-Fluoro-4-methoxyphenyl)-5H-indolo[3,2-d]pyrimidine] |  |
| 20 nM | c1ccc(-c2ncc3[nH]c4ccccc4c3n2)cc1 [Compound 4, 2-Phenyl-5H-indolo[3,2-d]pyrimidine] |  |

| SMILES | IC50 [2] | blocking of enhancement of benzodiazepine binding by GABA agonists [1] |
| --- | --- | --- |
| Oc1nc(-c2ccccc2)nc2c1[nH]c1ccccc12 [Compound 2, 4-Hydroxy-2-phenyl-5H-indolo[3,2-d]pyrimidine] | 100 nM |  |
